Test results taken from patent US20240285670A1, “THERAPEUTIC TREATMENT OF TUMORS BY BLOCKING THE HEME SYNTHESIS-EXPORT AXIS” (Università degli Studi di Torino, priority 2021, published 2024).

Key:
[1] = system: BTECs; test: TCA cycle flux in BTECs; type: cell-based, human; conditions: FLVCR1a-silenced vs scramble shRNA BTECs
Text: Results were expressed as nmol NAD*/min/mg mitochondrial protein for complex I, nmol reduced cytochrome c/min/mg mitochondrial protein for complexes II-III, nmol oxidized cytochrome c/min/mg mitochondrial protein for complex IV. Data represent mean±SEM, n=3. For statistical analyses, an unpaired Student's t-test was used; *=p<0.05, **=p<0.01, *=p<0.001. […] Results are expressed as nmol/mg mitochondrial proteins. Data represent mean±SEM, n=3. For statistical analyses, an unpaired Student's t-test was used; *=p<0.05. […] Results are expressed as pmol CO2/h/mg protein. Data represent mean±SEM, n=3. For statistical analyses, an unpaired Student's t-test was used; **=p<0.01. […] Results were expressed as nmol NAD*/min/mg mitochondrial protein for complex I, nmol reduced cytochrome c/min/mg mitochondrial protein for complexes II-III, nmol oxidized cytochrome c/min/mg mitochondrial protein for complex IV. […] Results are expressed as nmol/mg mitochondrial proteins. […] Results are expressed as pmol CO2/h/mg protein. […] (H) TCA cycle enzymes activities are reported in boxes and expressed as mU/mg mitochondrial proteins. […] Results were expressed as nmol NAD^+/min/mg mitochondrial protein for complex I, nmol reduced cytochrome c/min/mg mitochondrial protein for complexes II-III, nmol oxidized cytochrome c/min/mg mitochondrial protein for complex IV. […] Results are expressed as nmol/mg mitochondrial proteins. […]

[2] = system: C80 cells; test: Mitochondrial ATP levels in C80 cells; type: cell-based, human; conditions: FLVCR1a-silenced vs scramble shRNA C80 cells
Text: (A, C, E) Activities of the mitochondrial electron transport chain complexes I-IV. FLVCR1a-silenced Caco2 (A), SKCO1 (C) or C80 cells (E) are compared to cells expressing a scramble shRNA. Results were expressed as nmol NAD^+/min/mg mitochondrial protein for complex I, nmol reduced cytochrome c/min/mg mitochondrial protein for complexes II-III, nmol oxidized cytochrome c/min/mg mitochondrial protein for complex IV. Data represent mean±SEM, n=3. For statistical analyses, an unpaired Student's t-test was used; *=p<0.05, **=p<0.01. (B, D, F) Mitochondrial ATP levels measured by a bioluminescent assay kit. FLVCR1a-silenced Caco2 (B), SKCO1 (D) or C80 cells (F) are compared to cells expressing a scramble shRNA. Results are expressed as nmol/mg mitochondrial proteins. […] Results were expressed as nmol NAD^+/min/mg mitochondrial protein for complex I, nmol reduced cytochrome c/min/mg mitochondrial protein for complexes II-III, nmol oxidized cytochrome c/min/mg mitochondrial protein for complex IV. […] (H) Mitochondrial ATP levels measured by a bioluminescent assay kit in Caco2 cells overexpressing FLVCR1a (indicated as FLVCR1a+) compared to cells stably transduced with an empty vector. Results are expressed as nmol/mg mitochondrial proteins. […]
ATP levels in mitochondria extracts were assessed by the ATP Bioluminescent Assay Kit (Sigma-Aldrich, St. Louis, MO USA, catalog n° FLAA). […]

FLVCR1a shRNA: shRNA specifically down-regulating FLVCR1a without targeting FLVCR1b; pLKO.1 lentiviral clone TRCN0000059599, antisense SEQ ID No.: 2 (antisense TTGCTAATGATGCTGTACTGG; sense CCAGTACAGCATCATTAGCAA)
TCA cycle flux [1]: increased TCA cycle flux | mitochondrial ATP levels [2]: increased
